Results published in PubChem BioAssay (NCI).
Values joined by “and” are separate entries in the source; they are usually repeats but may differ in a detail not shown here. Equal values may be shown once.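 Test compounds were applied to cells in 96-well plates for 48 hours at 5 doses. GI50 = concentration required for 50% inhibition of growth. TGI marks complete inhibition of growth.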

What follows are compounds tested on BT-549 breast (assay: NCI tumour cell line growth inhibition, 48 h).
In the case of COC(=O)C(=O)C(C(=O)C(=O)Nc1ccccc1C(N)=O)c1nc2ccc(Cl)cc2[nH]c1=O (stereo not drawn), the TGI is reported as greater than 100 µM. With COc1cc[nH]c1/C=C1\C(=O)Nc2ccccc21 the GI50 was 7.98 µM and the TGI was greater than 25 µM. With Cc1cn2c(/C=C3/C(=O)N(C)c4ccccc43)c(C)nc2s1 the GI50 was 10.8 µM and the TGI was greater than 100 µM. Cc1nc2ccccc2c(=O)n1NC(=O)c1ccccn1 showed a TGI greater than 100 µM.

The compounds below were run on HT29 colon (assay: NCI tumour cell line growth inhibition, 48 h).
For O=C1NC(=O)c2ccc([N+](=O)[O-])c3cccc1c23, the TGI was 39.3 µM. With C[N+](C)(C)CC1CCCC(C[N+](C)(C)C)C1=O (stereo not drawn) the TGI was 14.2 µM. Work on CN(C)CCCn1c2c(c3ccccc3c1=O)C(=O)c1ccccc1-2 yielded a GI50 of 0.749 µM and a TGI of 4.51 µM. CN(C)CCNC(=O)c1cccc(C(=O)Nc2ccccc2)c1[N+](=O)[O-] was tested, and the TGI was greater than 100 µM. CC(=O)OC1Oc2ccccc2-c2oc(=O)c(-c3cc4ccc(N(C)C)cc4oc3=O)cc21 (stereo not drawn) gave a GI50 of 22 µM and a TGI greater than 100 µM. CCC1(O)C(=O)OCc2c1cc1n(c2=O)Cc2cc3ccc(C=O)cc3nc2-1 (stereo not drawn) was tested, and the TGI was 16.5 µM and > 89 µM. Work on CC1(C)C2CC(O)C1(C)CC2=O (stereo not drawn) yielded a TGI greater than 100 µM. COc1cc2oc(-c3ccc(O)cc3)cc(=O)c2c(OC)c1OC gave a TGI greater than 100 µM. Compound O=C(CCl)Nc1ccc(Cl)cc1 has a GI50 of 2.03 µM and a TGI of 4.26 µM. O=S(=O)(/N=S(/Nc1ccccc1)C(Cl)Cl)c1ccccc1 (stereo not drawn) was tested, and the TGI was greater than 100 µM. Fc1cc(F)c(COc2cc(Cn3cnc4c(Cl)nc(Cl)nc43)ccc2C23CC4CC(CC(C4)C2)C3)cc1F was tested, and the GI50 was 23.6 µM and the TGI was 62.5 µM. With COc1ccc(N2C(=O)C3c4[nH]c5ccc(C)cc5c4C4CCC(C(C)(C)C)CC4C3C2=O)cc1 (stereo not drawn) the TGI was greater than 100 µM. With CC/C=C\C[C@@H]1C/C=C2/C(=O)C=C[C@H]2C/C=C\CCCC(=O)O1 the GI50 was 0.267 µM and the TGI was 0.677 µM. Work on NC(=S)N/N=C/c1ccc(OC(=O)COc2ccc(Cl)cc2)cn1 yielded a GI50 of 7.19 µM and a TGI greater than 100 µM. Compound O=C(N/N=C/c1cccc(O)c1O)c1ccccc1 has a GI50 of 4.9 µM and a TGI greater than 100 µM. O=C1c2ccccc2-c2c1c1ccccc1c(=O)n2Cc1ccccc1 was tested, and the TGI was greater than 100 µM. For Nc1ncc(-c2cnn(CCO)c2)c2scc(-c3ccc(NC(=O)Nc4cccc(F)c4)cc3)c12, the GI50 was 0.283 µM and the TGI was 2.07 µM. In the case of COc1cc(C2=NN(C(C)=O)C(c3ccc(OC(C)=O)cc3OC(C)=O)O2)c(OC(C)=O)c2ccccc12 (stereo not drawn), the GI50 is reported as 4.48 µM and the TGI is reported as 41.3 µM. For CCOC(=O)c1cc(/C(=N\O)c2cc(OC)c(OC)c(OC)c2)n2cc(C)cc(C)c12, the GI50 was 3.08 µM and the TGI was greater than 100 µM. COC(=O)C(=O)C(C(=O)C(=O)Nc1ccccc1C(N)=O)c1nc2ccc(Cl)cc2[nH]c1=O (stereo not drawn) gave a TGI greater than 100 µM. For COc1cc[nH]c1/C=C1\C(=O)Nc2ccccc21, the GI50 was 12.3 µM and the TGI was greater than 25 µM. Work on Cc1cn2c(/C=C3/C(=O)N(C)c4ccccc43)c(C)nc2s1 yielded a GI50 of 3.58 µM and a TGI greater than 100 µM. Cc1nc2ccccc2c(=O)n1NC(=O)c1ccccn1 showed a TGI greater than 100 µM.

What follows are compounds tested on EKVX NSCLC (assay: NCI tumour cell line growth inhibition, 48 h).
O=C1NC(=O)c2ccc([N+](=O)[O-])c3cccc1c23 was tested, and the TGI was 62.4 µM. Work on C[N+](C)(C)CC1CCCC(C[N+](C)(C)C)C1=O (stereo not drawn) yielded a TGI of 3.95 µM. CN(C)CCCn1c2c(c3ccccc3c1=O)C(=O)c1ccccc1-2 showed a GI50 of 11.3 µM and a TGI of 36.8 µM. Work on CC(=O)OC1Oc2ccccc2-c2oc(=O)c(-c3cc4ccc(N(C)C)cc4oc3=O)cc21 (stereo not drawn) yielded a GI50 of 1.78 µM and a TGI of 22.2 µM. In the case of CCC1(O)C(=O)OCc2c1cc1n(c2=O)Cc2cc3ccc(C=O)cc3nc2-1 (stereo not drawn), the GI50 is reported as 15.1 µM and the TGI is reported as 50 µM and > 100 µM. COc1ccc2c(c1)C(=O)c1c-2n(CCCn2ccnc2)c(=O)c2ccccc12 showed a GI50 of 1.51 µM and a TGI of 11.9 µM. With COc1cc2oc(-c3ccc(O)cc3)cc(=O)c2c(OC)c1OC the TGI was greater than 100 µM. Compound O=C(CCl)Nc1ccc(Cl)cc1 has a GI50 of 6.93 µM and a TGI of 26.3 µM. For O=S(=O)(/N=S(/Nc1ccccc1)C(Cl)Cl)c1ccccc1 (stereo not drawn), the TGI was greater than 100 µM. Fc1cc(F)c(COc2cc(Cn3cnc4c(Cl)nc(Cl)nc43)ccc2C23CC4CC(CC(C4)C2)C3)cc1F gave a GI50 of 23.3 µM and a TGI of 50.8 µM. Work on COc1ccc(N2C(=O)C3c4[nH]c5ccc(C)cc5c4C4CCC(C(C)(C)C)CC4C3C2=O)cc1 (stereo not drawn) yielded a TGI greater than 100 µM. For CC/C=C\C[C@@H]1C/C=C2/C(=O)C=C[C@H]2C/C=C\CCCC(=O)O1, the GI50 was 1.1 µM and the TGI was 2.44 µM. NC(=S)N/N=C/c1ccc(OC(=O)COc2ccc(Cl)cc2)cn1 gave a GI50 of 30.9 µM and a TGI greater than 100 µM. In the case of O=C1c2ccccc2-c2c1c1ccccc1c(=O)n2Cc1ccccc1, the TGI is reported as greater than 100 µM. In the case of CCOC(=O)c1cc(/C(=N\O)c2cc(OC)c(OC)c(OC)c2)n2cc(C)cc(C)c12, the GI50 is reported as 3.83 µM and the TGI is reported as greater than 100 µM. With Cc1cn2c(/C=C3/C(=O)N(C)c4ccccc43)c(C)nc2s1 the GI50 was 15.8 µM and the TGI was greater than 100 µM. In the case of Cc1nc2ccccc2c(=O)n1NC(=O)c1ccccn1, the TGI is reported as greater than 100 µM.

These compounds were tested on PC-3 prostate (assay: NCI tumour cell line growth inhibition, 48 h).
In the case of O=C1NC(=O)c2ccc([N+](=O)[O-])c3cccc1c23, the TGI is reported as 32 µM. Compound C[N+](C)(C)CC1CCCC(C[N+](C)(C)C)C1=O (stereo not drawn) has a TGI of 10.3 µM. Compound CN(C)CCCn1c2c(c3ccccc3c1=O)C(=O)c1ccccc1-2 has a GI50 of 2.27 µM and a TGI of 13.7 µM. Compound CN(C)CCNC(=O)c1cccc(C(=O)Nc2ccccc2)c1[N+](=O)[O-] has a TGI greater than 100 µM. CC(=O)OC1Oc2ccccc2-c2oc(=O)c(-c3cc4ccc(N(C)C)cc4oc3=O)cc21 (stereo not drawn) was tested, and the GI50 was 10.5 µM and the TGI was 32.6 µM. For CCC1(O)C(=O)OCc2c1cc1n(c2=O)Cc2cc3ccc(C=O)cc3nc2-1 (stereo not drawn), the TGI was 50 µM and > 100 µM. In the case of CC1(C)C2CC(O)C1(C)CC2=O (stereo not drawn), the TGI is reported as greater than 100 µM. COc1ccc2c(c1)C(=O)c1c-2n(CCCn2ccnc2)c(=O)c2ccccc12 gave a GI50 of 0.765 µM and a TGI greater than 100 µM. COc1cc2oc(-c3ccc(O)cc3)cc(=O)c2c(OC)c1OC showed a TGI greater than 100 µM. In the case of O=C(CCl)Nc1ccc(Cl)cc1, the GI50 is reported as 7.36 µM and the TGI is reported as 23.7 µM. O=S(=O)(/N=S(/Nc1ccccc1)C(Cl)Cl)c1ccccc1 (stereo not drawn) showed a TGI greater than 100 µM. With Fc1cc(F)c(COc2cc(Cn3cnc4c(Cl)nc(Cl)nc43)ccc2C23CC4CC(CC(C4)C2)C3)cc1F the GI50 was 19.3 µM and the TGI was 33.8 µM. In the case of COc1ccc(N2C(=O)C3c4[nH]c5ccc(C)cc5c4C4CCC(C(C)(C)C)CC4C3C2=O)cc1 (stereo not drawn), the TGI is reported as greater than 100 µM. CC/C=C\C[C@@H]1C/C=C2/C(=O)C=C[C@H]2C/C=C\CCCC(=O)O1 was tested, and the GI50 was 0.535 µM and the TGI was 2.39 µM.
